Laboratory results taken from PMC6364417, “Kinase inhibitor library screening identifies synergistic drug combinations effective in sensitive and resistant melanoma cells” (Journal of Experimental & Clinical Cancer Research : CR, 2019).
Where two headings read alike, the source gives them in different places. Values belong to the compound of their own block, whether it stands above or below them.

Columns and labels:
[1] = tested on: IGR37-GP cells (Dabrafenib-resistant); assay: Dose-response curves and IC50, PrestoBlue cell viability, 72 h; settings: Homo sapiens, 72 h, read-out: Half-maximal inhibitory concentration (IC50)
[2] = tested on: A375-GP cells (Dabrafenib-resistant); assay: as above; format: cell-based, human; settings: n.e. = did not suppress growth below 50% in the tested concentration range; for IC50: read-out: Half-maximal inhibitory concentration value (IC50), Mean
IGR37 cells (parental) [3] = assay: as above; settings: Homo sapiens, IGR-37, 72 h, read-out: Half-maximal inhibitory concentration (IC50)
Method: (§4) All inhibitors used in this study were purchased from Selleck Chemicals (Houston, USA). They were dissolved in DMSO to a stock concentration of 10 mM according to the manufacturer’s instructions and stored at − 80 °C. […] Cell viability was measured with the PrestoBlue Cell Viability Reagent (ThermoFisher Scientific) on a CLARIOstar Monochromator microplate reader (BMG Labtech). Using the GraphPad Prism v5.04 software, the half-maximal inhibitor concentration values (IC50) were determined from the curve using the nonlinear log (inhibitor) vs response-variable slope (four parameters) equation. […] The IC50’s were determined for 3 biological replicates and are listed with their standard deviations.
(§5) Values represent the mean of at least three biological replicates; one representative curve of at least 3 biological replicates is depicted. _XP: cells resistant to Vemurafenib (red), _GP: cells resistant to Dabrafenib (green).

PARP cleavage = assay: Western blot, PARP cleavage in A375 cells; format: cell-based, human; settings: A375, A375-XP, A375-GP; 24 h treatment
Method: Cells were seeded at a density of 10^5 cells/well in 24-well plates (Greiner). 24 h post seeding, cells were treated with inhibitors at indicated amounts for 3 h and/or 24 h. […] The following primary antibodies were used: anti-phospho-CHK1 (Ser317) (Cell Signalling Technology, 1:1000), anti-CHK1 (Cell Signalling Technology, 1:1000), anti-phospho-cdc2 (Tyr15) (Cell Signalling Technology, 1:1000), anti-cdc2 (Cell Signalling Technology, 1:1000), anti-PARP (Cell Signalling Technology, 1:1000), anti-cleaved-PARP (Cell Signalling Technology, 1:1000), anti-phospho-Erk (Tyr202/Tyr204) (Cell Signalling Technology, 1:2000), anti-Erk1/2 (Santa Cruz, Erk1 = 1:1000, Erk2 = 1:2000), anti-phospho-Akt (Ser473) (Cell Signalling Technology, 1:1500), anti-Akt1/2 (Santa Cruz, 1:1000), anti-Vinculin (Abcam, 1:1000) and anti-Tubulin (Santa Cruz, 1:5000). HRP-labeled secondary antibodies were purchased from Cell Signaling Technology (Boston, MA).

[4] = tested on: 501Mel-XP cells (Vemurafenib-resistant); assay: Dose-response curves and IC50, PrestoBlue cell viability, 72 h; settings: Homo sapiens, 72 h, read-out: Half-maximal inhibitory concentration (IC50)
A375 cells (parental) [5] = assay: as above; format: cell-based, human; settings: read-out: Half-maximal inhibitory concentration value (IC50), Mean
[6] = tested on: A375-XP cells (Vemurafenib-resistant); assay: as above; format: cell-based, human; settings: n.e. = did not suppress growth below 50% in the tested concentration range; for IC50: read-out: Half-maximal inhibitory concentration value (IC50), Mean
A375 cells = assay: Synergy determination with the Chou-Talalay method (CompuSyn), cell viability 72 h; format: cell-based, human; settings: 72 h cell viability, Chou-Talalay / Synergyfinder
[7] = tested on: NHEM (normal human epidermal melanocytes); assay: Dose-response curves and IC50 in non-cancer cells, cell viability, 72 h; settings: for effect on healthy cells, cell viability (in words): melanocytes (NHEM)
Method: (§1) The IC50 values (nM) were calculated as indicated in Methods.

[8] = tested on: NHDF (normal human dermal fibroblasts); assay: as above; settings: for effect on healthy cells, cell viability (in words): fibroblasts (NHDF)
Method: as §1

[9] = tested on: IGR37-XP cells (Vemurafenib-resistant); assay: Dose-response curves and IC50, PrestoBlue cell viability, 72 h; settings: Homo sapiens, 72 h, read-out: Half-maximal inhibitory concentration (IC50)
Method: as §4, §5

[10] = tested on: 501Mel-GP cells (Dabrafenib-resistant); assay: as above; settings: Homo sapiens, 72 h, read-out: Half-maximal inhibitory concentration (IC50)
Method: as §4

[11] = tested on: A375 cells (parental sensitive) tumors; assay: In vivo assay, subcutaneous melanoma tumors in NSG mice; set-up: species or system NOD scid gamma (NSG) mice; settings: NSG mice with A375 or A375-XP tumors, 8 days of daily treatment
Method: NOD scid gamma (NSG) mice were bred in-house and experiments were performed according to all applicable laws and regulations, after receiving approval by the institution’s animal experimentation ethics committee and the veterinarian service of the Ministry of Agriculture (Permit Number: 18-MDM-01). Single parental sensitive A375 cells (0.5 × 10^6 cells) and Vemurafenib-resistant A375-XP cells (2 × 10^6 cells) were resuspended in 100 μL of 1:1 mixed serum-free medium and matrigel (BD Biosciences) and injected subcutaneously in 6–8 week-old mice. […] Control mice received the respective vehicle by oral gavage and intraperitoneal injection. […] Statistical analysis was done using a two-way ANOVA followed by post-hoc Tukey’s multiple comparison tests.

501Mel cells (parental) [12] = assay: Dose-response curves and IC50, PrestoBlue cell viability, 72 h; settings: Homo sapiens, 72 h, read-out: Half-maximal inhibitory concentration (IC50)
Method: as §4, §5

[13] = tested on: 501Mel-XP cells (Vemurafenib-resistant); assay: Kinase inhibitor library screening, PrestoBlue cell viability, 1 or 10 μM, 72 h; settings: 501Mel XP, 72 h
A375 cells (parental) [14] = assay: as above; settings: A375 Parental, 72 h
IGR37 cells (parental) [15] = assay: as above; settings: IGR37 Parental, 72 h
[16] = tested on: IGR37-XP cells (Vemurafenib-resistant); assay: as above; settings: IGR37 XP, 72 h
[17] = tested on: 501Mel-GP cells (Dabrafenib-resistant); assay: as above; settings: 501Mel GP, 72 h
[18] = tested on: A375-XP cells (Vemurafenib-resistant); assay: as above; settings: A375 XP, 72 h
501Mel cells (parental) [19] = assay: as above; settings: 501Mel Parental, 72 h
Outline: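 Treatment: 72 h with inhibitor. Detection: PrestoBlue, plate reader. Output: viability as % untreated control. Replicates: duplicate minimum. Lines: parental plus Vemurafenib- or Dabrafenib-resistant derivatives.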

[20] = tested on: A375-GP cells (Dabrafenib-resistant); assay: as above; settings: A375 GP, 72 h
[21] = tested on: IGR37-GP cells (Dabrafenib-resistant); assay: as above; settings: IGR37 GP, 72 h
[22] = tested on: A375 parental cells expressing iRFP; assay: Long-term inhibitor treatment, iRFP fluorescence proliferation monitoring; format: cell-based, human
Method: A375 parental and BRAFi-resistant cells, virally transduced with the near-infrared fluorescent protein (iRFP) were seeded at a density of 2500 cells/well in a 24-well plate (Greiner) in at least technical triplicates. Inhibitors, single or in combination, were added at the indicated amounts and replenished every 72 h for a duration of 76 days. To assess whether any remaining cells have become resistant to the treatment and would re-emerge, the drugs were removed and the cells underwent “drug holidays” for an additional 21 days. During the long-term treatment, cell proliferation was monitored bi-weekly on a LI-COR Odyssey Infrared Imaging System (LI-COR Biosciences). Fluorescence intensity was quantified with the Image Studio™ Lite software (LI-COR Biosciences).

P-Akt levels = assay: Western blot, phospho-Akt; format: cell-based, human; settings: A375 cells, 3 h treatment
Method: (§2) Cells were seeded at a density of 10^5 cells/well in 24-well plates (Greiner). 24 h post seeding, cells were treated with inhibitors at indicated amounts for 3 h and/or 24 h. Western blot analysis was performed as described before. The following primary antibodies were used: anti-phospho-CHK1 (Ser317) (Cell Signalling Technology, 1:1000), anti-CHK1 (Cell Signalling Technology, 1:1000), anti-phospho-cdc2 (Tyr15) (Cell Signalling Technology, 1:1000), anti-cdc2 (Cell Signalling Technology, 1:1000), anti-PARP (Cell Signalling Technology, 1:1000), anti-cleaved-PARP (Cell Signalling Technology, 1:1000), anti-phospho-Erk ([…]) (Cell Signalling Technology, 1:2000), anti-Erk1/2 (Santa Cruz, Erk1 = 1:1000, Erk2 = 1:2000), anti-phospho-Akt (Ser473) (Cell Signalling Technology, 1:1500), anti-Akt1/2 (Santa Cruz, 1:1000), anti-Vinculin (Abcam, 1:1000) and anti-Tubulin (Santa Cruz, 1:5000). HRP-labeled secondary antibodies were purchased from Cell Signaling Technology (Boston, MA).
(§3) Supplementary file 13046_2019_1038_MOESM6_ESM.pdf: Additional file 6: Figure S4. Western blot analysis for selected drug treatments and apoptosis assays in healthy and melanoma cells. […] Cells were treated for 3 h with indicated concentrations of inhibitors. […] P-cdc2 (CDK1), cdc2 (CDK1), p-Chk1 and Chk1 were detected after 3 h drug treatment, while PARP cleavage was detected after 24 h treatment. […]

Erk phosphorylation = assay: Western blot, phospho-Erk; format: cell-based, human; settings: A375 cells, 3 h treatment
Method: as §2, §3

[23] = Homo sapiens, A-375, n.e. = did not suppress growth below 50% in the tested concentration range
[24] = n.e. = did not suppress growth below 50% in the tested concentration range

SMILES: NC(=O)Nc1cc(-c2cccc(F)c2)sc1C(=O)N[C@H]1CCCNC1 [AZD7762]
- IC50 [1]: 70 nM
- IC50 ([2]; Homo sapiens): 299 nM
- IC50 (IGR37 cells (parental) [3]): 65 nM
- Cleavage of PARP (in words) (PARP cleavage): induced
- IC50 [4]: 188 nM
- IC50 (A375 cells (parental) [5]; [23]): 311 nM
- IC50 ([6]; Homo sapiens): 366 nM
- synergistic effects with the BRAF inhibitors Vemurafenib and/or Dabrafenib (in words) (A375 cells): clear synergistic effects
- IC50 ([7]; Homo sapiens, Melanocyte, read-out: Half-maximal inhibitory concentration (IC50), NHEM Mean): 358 nM
- effect on healthy cells, cell viability (in words) [7]: very modest effects
- IC50 ([8]; Homo sapiens, NHDF, read-out: Half-maximal inhibitory concentration (IC50), NHDF Mean): 532 nM
- effect on healthy cells, cell viability (in words) [8]: very modest effects
- IC50 [9]: 58 nM
- IC50 [10]: 426 nM
- body weight and side effects during treatment (in words) [11]: did not lose weight
- IC50 (501Mel cells (parental) [12]): 306 nM

SMILES: O=c1[nH]c2ccc(Cl)cc2c(N[C@@H]2CN3CCC2CC3)c1-c1nc2ccccc2[nH]1 [CHIR-124, reference compound]
- IC50 [2]: 278 nM
- IC50 (A375 cells (parental) [5]; [24]): 233 nM
- IC50 [6]: 321 nM
- synergistic effects with the BRAF inhibitors Vemurafenib and/or Dabrafenib (in words) (A375 cells): synergistic effects only with Dabrafenib
- cell viability (kinase inhibitor library screening) ([13]; 1μΜ): 26.0%
- cell viability (kinase inhibitor library screening) ([13]; 10μΜ): 0.156%
- cell viability (kinase inhibitor library screening) (A375 cells (parental) [14]; 10μΜ): 2.4%
- cell viability (kinase inhibitor library screening) (A375 cells (parental) [14]; 1μΜ): 23.5%
- cell viability (kinase inhibitor library screening) (IGR37 cells (parental) [15]; 1μΜ): 57.6%
- cell viability (kinase inhibitor library screening) (IGR37 cells (parental) [15]; 10μΜ): 1.0%
- cell viability (kinase inhibitor library screening) ([16]; 1μΜ): 63.5%
- cell viability (kinase inhibitor library screening) ([16]; 10μΜ): 1.6%
- cell viability (kinase inhibitor library screening) ([17]; 1μΜ): 40.5%
- cell viability (kinase inhibitor library screening) ([17]; 10μΜ): 0.146%
- cell viability (kinase inhibitor library screening) ([18]; 1μΜ): 40.8%
- cell viability (kinase inhibitor library screening) ([18]; 10μΜ): 1.5%
- cell viability (kinase inhibitor library screening) (501Mel cells (parental) [19]; 1μΜ): 47.8%
- cell viability (kinase inhibitor library screening) (501Mel cells (parental) [19]; 10μΜ): 0.9%
- cell viability (kinase inhibitor library screening) ([20]; 1μΜ): 18.2%
- cell viability (kinase inhibitor library screening) ([20]; 10μΜ): 1.5%
- cell viability (kinase inhibitor library screening) ([21]; 1μΜ): 91.0%
- cell viability (kinase inhibitor library screening) ([21]; 10μΜ): 2.3%
- long-term cell growth under drug until day 76 (in words) ([22]; 150 nM, even with Dabrafenib (data not shown)): not sufficient to prevent cells to grow back
- long-term cell growth under drug until day 76 (in words) ([22]; 300 nM single treatment): killed most of the cells

- IC50 [2]: 301 nM
- IC50 [6]: 176 nM
SMILES: CNC(=O)c1ccccc1Nc1nc(Nc2ccc(N3CCOCC3)cc2OC)ncc1Cl [TAE226]
- IC50 (A375 cells (parental) [5]; [24]): 489 nM
- P-Akt levels (in words) (P-Akt levels): blocking P-Akt levels
- synergistic effects with the BRAF inhibitors Vemurafenib and/or Dabrafenib (in words) (A375 cells): Vemurafenib showed synergism

- Half-maximal inhibitory concentration value (IC50), Mean [2]: n.e.
- Half-maximal inhibitory concentration value (IC50), Mean [6]: n.e.
SMILES: CCCS(=O)(=O)Nc1ccc(F)c(C(=O)c2c[nH]c3ncc(-c4ccc(Cl)cc4)cc23)c1F [Vemurafenib]
- IC50 (A375 cells (parental) [5]; [23]): 135 nM
- Erk phosphorylation (in words) (Erk phosphorylation): inhibition of Erk phosphorylation by Vemurafenib was confirmed
- effect on healthy cells, cell viability (in words) [7]: did not have any effect
- effect on healthy cells, cell viability (in words) [8]: did not have any effect
